Columns and labels:
Assay type in all cases: biochemical
HIPK2 [1] = target: T1, HIPK2 (Homo sapiens, UniProt Q9H2X6); experiment: ADP-Glo kinase assay (positive control drug); conditions: read-out: IC50 ± SEM (μM) / HIPK2
HIPK3 = HIPK3 (Homo sapiens, UniProt Q9H422); experiment: kinase inhibition assay, percent inhibition at […]
HIPK2 [2] = target: T1, HIPK2; experiment: ADP-Glo kinase assay (MBP substrate); conditions: read-out: IC50 ± SEM (μM) / HIPK2

T1 sequence (Q9H2X6 whole entry): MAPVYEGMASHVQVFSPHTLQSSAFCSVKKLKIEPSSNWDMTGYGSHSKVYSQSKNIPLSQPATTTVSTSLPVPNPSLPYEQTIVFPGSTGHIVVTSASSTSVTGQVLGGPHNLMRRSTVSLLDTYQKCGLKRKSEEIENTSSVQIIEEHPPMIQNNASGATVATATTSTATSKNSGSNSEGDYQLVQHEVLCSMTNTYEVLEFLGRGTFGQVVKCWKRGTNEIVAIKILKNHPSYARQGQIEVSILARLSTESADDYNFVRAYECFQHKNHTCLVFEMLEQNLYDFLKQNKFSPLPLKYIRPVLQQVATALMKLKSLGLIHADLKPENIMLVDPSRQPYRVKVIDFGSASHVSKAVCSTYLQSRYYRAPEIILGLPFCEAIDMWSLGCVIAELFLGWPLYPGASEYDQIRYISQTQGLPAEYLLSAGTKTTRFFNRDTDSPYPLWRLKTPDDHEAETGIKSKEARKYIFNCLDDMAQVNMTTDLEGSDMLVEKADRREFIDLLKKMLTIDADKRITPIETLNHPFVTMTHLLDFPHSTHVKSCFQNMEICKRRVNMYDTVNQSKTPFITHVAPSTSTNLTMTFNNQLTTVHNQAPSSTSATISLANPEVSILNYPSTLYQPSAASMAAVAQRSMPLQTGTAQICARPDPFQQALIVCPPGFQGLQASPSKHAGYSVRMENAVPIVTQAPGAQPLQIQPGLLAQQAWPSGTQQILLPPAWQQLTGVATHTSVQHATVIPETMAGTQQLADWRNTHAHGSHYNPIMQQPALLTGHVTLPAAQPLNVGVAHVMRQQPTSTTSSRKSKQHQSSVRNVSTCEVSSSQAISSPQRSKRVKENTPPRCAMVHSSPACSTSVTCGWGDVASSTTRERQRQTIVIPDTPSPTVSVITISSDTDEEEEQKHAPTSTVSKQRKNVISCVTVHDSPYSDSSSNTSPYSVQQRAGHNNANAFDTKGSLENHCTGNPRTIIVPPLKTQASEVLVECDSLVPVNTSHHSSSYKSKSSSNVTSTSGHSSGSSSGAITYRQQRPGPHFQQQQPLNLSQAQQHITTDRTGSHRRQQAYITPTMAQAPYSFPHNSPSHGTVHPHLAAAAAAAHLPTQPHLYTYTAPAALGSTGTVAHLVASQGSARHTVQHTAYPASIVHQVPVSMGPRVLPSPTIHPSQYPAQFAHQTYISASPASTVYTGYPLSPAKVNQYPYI
Sequence of HIPK3 (Q9H422 whole entry): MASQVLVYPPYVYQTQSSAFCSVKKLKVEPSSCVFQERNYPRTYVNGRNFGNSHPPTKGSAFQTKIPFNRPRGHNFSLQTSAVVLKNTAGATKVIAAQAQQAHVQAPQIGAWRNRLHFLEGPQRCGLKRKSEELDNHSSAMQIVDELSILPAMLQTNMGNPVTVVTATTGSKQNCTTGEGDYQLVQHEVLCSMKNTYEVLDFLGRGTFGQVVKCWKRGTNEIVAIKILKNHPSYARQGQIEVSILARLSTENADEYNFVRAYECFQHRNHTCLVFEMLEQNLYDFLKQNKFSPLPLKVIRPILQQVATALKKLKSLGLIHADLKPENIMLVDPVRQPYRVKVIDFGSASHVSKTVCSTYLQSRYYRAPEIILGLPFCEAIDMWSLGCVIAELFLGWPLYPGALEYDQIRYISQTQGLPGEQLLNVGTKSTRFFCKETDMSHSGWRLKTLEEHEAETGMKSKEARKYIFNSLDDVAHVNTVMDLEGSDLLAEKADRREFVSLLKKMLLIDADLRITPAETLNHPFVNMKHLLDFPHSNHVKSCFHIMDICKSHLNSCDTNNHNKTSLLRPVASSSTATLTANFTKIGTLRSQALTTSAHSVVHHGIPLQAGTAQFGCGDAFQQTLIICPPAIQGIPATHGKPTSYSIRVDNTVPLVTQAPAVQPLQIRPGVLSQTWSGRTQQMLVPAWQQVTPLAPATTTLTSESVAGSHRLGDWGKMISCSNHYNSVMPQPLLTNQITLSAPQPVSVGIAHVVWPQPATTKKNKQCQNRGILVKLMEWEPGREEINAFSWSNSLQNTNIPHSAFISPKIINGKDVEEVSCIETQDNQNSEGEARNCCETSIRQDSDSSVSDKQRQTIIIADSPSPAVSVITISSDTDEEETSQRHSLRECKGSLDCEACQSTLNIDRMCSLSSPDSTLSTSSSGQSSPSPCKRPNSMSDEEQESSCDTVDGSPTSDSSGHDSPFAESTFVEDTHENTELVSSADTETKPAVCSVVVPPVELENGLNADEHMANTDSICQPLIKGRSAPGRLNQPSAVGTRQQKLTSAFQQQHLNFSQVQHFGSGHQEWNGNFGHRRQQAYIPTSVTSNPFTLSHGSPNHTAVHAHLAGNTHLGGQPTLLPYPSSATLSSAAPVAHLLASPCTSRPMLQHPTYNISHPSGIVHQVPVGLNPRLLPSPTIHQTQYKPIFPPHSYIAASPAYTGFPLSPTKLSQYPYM

Row | SMILES | IC50 (HIPK2 [1]) [µM] | inhibition at 10 µM (HIPK3) [%] | IC50 (HIPK2 [2]) [µM]
1 | CCN1CCN(Cc2ccc(Nc3ncc(F)c(-c4cc(F)c5nc(C)n(C(C)C)c5c4)n3)nc2)CC1 [Abemaciclib] | 0.45 ± 0.12 | > 90 | 
2 | CCCNc1ccc2ncc(-c3ccc4[nH]ncc4c3)n2n1 [T9521, 3-(1H-indazol-5-yl)-N-propylimidazo[1,2-b]pyridazin-6-amine] |  |  | 0.97 ± 0.04
3 | O=C1Nc2ccc3ncsc3c2/C1=C/c1c[nH]cn1 [T16550] |  |  | 3.58 ± 0.06
